Data from patent US7767659B2, “Synthesis of naturally occurring ecteinascidins and related compounds” (Pharma Mar, S.A., priority 2002, dated 2010).

Assays:
A-549 = test: cells; conditions: Homo sapiens, A549, 48 h; for GI50: read-out: A549 GI50; for CC50: read-out: A549 LC50; for IC (TGI): read-out: A549 TGI
In short: (§1)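 Colorimetric SRB read (490 nm) on triplicate wells after 48 h at 37 °C, 5% CO2. Dose range 10 to 10^−8 μg/ml; 5×10^3 cells/well pre-attached 18 h.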

HT-29 = test: cells; conditions: Homo sapiens, HT-29, 48 h; for GI50: read-out: HT29 GI50; for CC50: read-out: HT29 LC50; for IC (TGI): read-out: HT29 TGI
In short: as §1

LoVo = test: cells; conditions: Homo sapiens, LoVo, 48 h; for GI50: read-out: LOVO GI50; for CC50: read-out: LOVO LC50; for IC (TGI): read-out: LOVO TGI
In short: as §1

DU-145 = test: Inhibition of cells growth by colorimetric assay (SRB); conditions: Homo sapiens, DU-145, 48 h; for GI50: read-out: DU145 GI50; for CC50: read-out: DU145 LC50; for IC (TGI): read-out: DU145 TGI
In short: as §1

HeLa-APL = test: as above; conditions: Homo sapiens, 48 h; for GI50: read-out: HELA-APL GI50; for CC50: read-out: HELA-APL LC50; for IC (TGI): read-out: HELA-APL TGI
In short: as §1

HeLa = test: as above; conditions: Homo sapiens, HeLa, 48 h; for GI50: read-out: HELA GI50; for CC50: read-out: HELA LC50; for IC (TGI): read-out: HELA TGI
In short: as §1

IGROV-1 = test: as above; conditions: Homo sapiens, IGROV-1, 48 h; for GI50: read-out: IGROV GI50; for CC50: read-out: IGROV LC50; for IC (TGI): read-out: IGROV TGI
In short: as §1

IGROV-ET = test: as above; conditions: Homo sapiens, 48 h; for GI50: read-out: IGROV-ET GI50; for CC50: read-out: IGROV-ET LC50; for IC (TGI): read-out: IGROV-ET TGI
In short: as §1

K-562 = test: as above; conditions: Homo sapiens, K562, 48 h; for GI50: read-out: K562 GI50; for CC50: read-out: K562 LC50; for IC (TGI): read-out: K562 TGI
In short: as §1

LNCaP = test: as above; conditions: Homo sapiens, LNCaP, 48 h; for GI50: read-out: LNCAP GI50; for CC50: read-out: LNCAP LC50; for IC (TGI): read-out: LNCAP TGI
In short: as §1

LoVo-Dox = test: as above; conditions: Homo sapiens, 48 h; for GI50: read-out: LOVO-DOX GI50; for CC50: read-out: LOVO-DOX LC50; for IC (TGI): read-out: LOVO-DOX TGI
In short: as §1

PANC-1 = test: as above; conditions: Homo sapiens, PANC-1, 48 h; for GI50: read-out: PANC-1 GI50; for CC50: read-out: PANC-1 LC50; for IC (TGI): read-out: PANC-1 TGI
In short: as §1

SK-BR-3 = test: as above; conditions: Homo sapiens, SK-BR-3, 48 h; for GI50: read-out: SK-BR3 GI50; for CC50: read-out: SK-BR3 LC50; for IC (TGI): read-out: SK-BR3 TGI
In short: as §1

SK-MEL-28 = test: as above; conditions: Homo sapiens, SK-MEL-28, 48 h; for GI50: read-out: MEL-28 GI50; for CC50: read-out: MEL-28 LC50; for IC (TGI): read-out: MEL-28 TGI
In short: as §1

SMILES: COc1ccc2[nH]c3c(c2c1)CCN[C@]31CS[C@@H]2c3c(OC(C)=O)c(C)c4c(c3[C@H](COC1=O)N1C2[C@@H]2N[C@@H](Cc3cc(C)c(OC)c(O)c32)[C@@H]1C#N)OCO4 (stereo partly drawn) [compound 60]
- GI50 (A-549): 3.6 nM
- CC50 (A-549): 76 nM
- IC (TGI) (A-549): 13.1 nM
- GI50 (HT-29): 2.28 nM
- CC50 (HT-29): 12800 nM
- IC (TGI) (HT-29): 13.1 nM
- GI50 (LoVo): 3.27 nM
- CC50 (LoVo): 2900 nM
- IC (TGI) (LoVo): 8.23 nM
- GI50 (DU-145): 1.8 nM
- CC50 (DU-145): 7130 nM
- IC (TGI) (DU-145): 1360 nM
- GI50 (HeLa-APL): 1.37 nM
- CC50 (HeLa-APL): 9.27 nM
- IC (TGI) (HeLa-APL): 3.58 nM
- GI50 (HeLa): 1.03 nM
- CC50 (HeLa): 12.8 nM
- IC (TGI) (HeLa): 3.41 nM
- GI50 (IGROV-1): 1.38 nM
- CC50 (IGROV-1): 11.8 nM
- IC (TGI) (IGROV-1): 4.03 nM
- GI50 (IGROV-ET): 20.9 nM
- CC50 (IGROV-ET): 2890 nM
- IC (TGI) (IGROV-ET): 53.1 nM
- GI50 (K-562): 0.809 nM
- CC50 (K-562): 8570 nM
- IC (TGI) (K-562): 13.2 nM
- GI50 (LNCaP): 0.415 nM
- CC50 (LNCaP): 5.03 nM
- IC (TGI) (LNCaP): 1.42 nM
- GI50 (LoVo-Dox): 163 nM
- CC50 (LoVo-Dox): 12800 nM
- IC (TGI) (LoVo-Dox): 757 nM
- GI50 (PANC-1): 3.31 nM
- CC50 (PANC-1): 12800 nM
- IC (TGI) (PANC-1): 11.9 nM
- GI50 (SK-BR-3): 0.431 nM
- CC50 (SK-BR-3): 42.2 nM
- IC (TGI) (SK-BR-3): 1.22 nM
- GI50 (SK-MEL-28): 1.91 nM
- CC50 (SK-MEL-28): 9.55 nM
- IC (TGI) (SK-MEL-28): 4.27 nM

SMILES: COc1cc2c(cc1O)CCN[C@]21CS[C@@H]2c3c(OC(=O)/C=C/c4ccccc4)c(C)c4c(c3[C@H](COC1=O)N1C2[C@@H]2N[C@@H](Cc3cc(C)c(OC)c(O)c32)[C@@H]1O)OCO4 (stereo partly drawn) [compound 53]
- GI50 (A-549): 3.34 nM
- CC50 (A-549): 2210 nM
- IC (TGI) (A-549): 8.17 nM
- GI50 (HT-29): 4.33 nM
- CC50 (HT-29): 2740 nM
- IC (TGI) (HT-29): 18.3 nM
- GI50 (LoVo): 3.82 nM
- CC50 (LoVo): 2940 nM
- IC (TGI) (LoVo): 8.54 nM
- GI50 (DU-145): 3.58 nM
- CC50 (DU-145): 3040 nM
- IC (TGI) (DU-145): 24.3 nM
- GI50 (HeLa-APL): 2.99 nM
- CC50 (HeLa-APL): 38.9 nM
- IC (TGI) (HeLa-APL): 12.2 nM
- GI50 (HeLa): 3.12 nM
- CC50 (HeLa): 83.9 nM
- IC (TGI) (HeLa): 7.55 nM
- GI50 (IGROV-1): 2.74 nM
- CC50 (IGROV-1): 2740 nM
- IC (TGI) (IGROV-1): 6.72 nM
- GI50 (IGROV-ET): 10.2 nM
- CC50 (IGROV-ET): 6450 nM
- IC (TGI) (IGROV-ET): 1400 nM
- GI50 (K-562): 1.54 nM
- CC50 (K-562): 583 nM
- IC (TGI) (K-562): 13 nM
- GI50 (LNCaP): 1.87 nM
- CC50 (LNCaP): 8.33 nM
- IC (TGI) (LNCaP): 3.95 nM
- GI50 (LoVo-Dox): 57.9 nM
- CC50 (LoVo-Dox): 5240 nM
- IC (TGI) (LoVo-Dox): 1450 nM
- GI50 (PANC-1): 3.36 nM
- CC50 (PANC-1): 1440 nM
- IC (TGI) (PANC-1): 10.1 nM
- GI50 (SK-BR-3): 2.95 nM
- CC50 (SK-BR-3): 1820 nM
- IC (TGI) (SK-BR-3): 29.9 nM
- GI50 (SK-MEL-28): 2.21 nM
- CC50 (SK-MEL-28): 7.2 nM
- IC (TGI) (SK-MEL-28): 4 nM
